Data from the NIST ThermoML archive (doi:10.1021/acs.jced.7b00347).
Numbers after ± are expanded uncertainties.

Experiment: mn = molality of the nth substance listed, in mol/kg
Conditions: for surface tension liquid-gas: Ring tensiometer; for electrical conductivity: 100 kPa, Liquid, Alternating current cell with electrodes

CCCCCCCCCCCCCCCC[NH+](CCO)CC(C)O.[Cl-] (configuration not stated) + O
Conditions | electrical conductivity [S/m] | surface tension liquid-gas [mN/m]
293.15 K, m1 = 1.052e-05 | – | 59.82 ± 0.78
293.15 K, m1 = 1.579e-05 | – | 56.69 ± 0.74
293.15 K, m1 = 2.631e-05 | – | 52.01 ± 0.68
293.15 K, m1 = 5.263e-05 | – | 45.56 ± 0.61
293.15 K, m1 = 0.0001052 | – | 39.23 ± 0.54
293.15 K, m1 = 0.0001263 | 0.000446 ± 2.5e-05 | –
293.15 K, m1 = 0.0001316 | 0.000471 ± 2.6e-05 | –
293.15 K, m1 = 0.0001368 | 0.000496 ± 2.8e-05 | –
293.15 K, m1 = 0.0001421 | 0.000522 ± 2.9e-05 | –
293.15 K, m1 = 0.0001473 | 0.000548 ± 3.1e-05 | –
293.15 K, m1 = 0.0001526 | 0.000573 ± 3.2e-05 | –
293.15 K, m1 = 0.0001579 | 0.000595 ± 3.4e-05 | 35.88 ± 0.5
293.15 K, m1 = 0.000171 | 0.00061 ± 3.5e-05 | –
293.15 K, m1 = 0.0001842 | 0.000621 ± 3.5e-05 | –
293.15 K, m1 = 0.0001973 | 0.000633 ± 3.6e-05 | –
293.15 K, m1 = 0.0002105 | 0.000644 ± 3.7e-05 | 34.88 ± 0.49
293.15 K, m1 = 0.0002236 | 0.000655 ± 3.7e-05 | –
293.15 K, m1 = 0.0002368 | 0.000667 ± 3.8e-05 | –
293.15 K, m1 = 0.00025 | 0.000678 ± 3.9e-05 | –
293.15 K, m1 = 0.0002631 | 0.000689 ± 4e-05 | 34.06 ± 0.48
293.15 K, m1 = 0.0002763 | 0.000701 ± 4e-05 | –
293.15 K, m1 = 0.0002894 | 0.000712 ± 4.1e-05 | –
293.15 K, m1 = 0.0003026 | 0.000723 ± 4.2e-05 | –
293.15 K, m1 = 0.0003157 | 0.000737 ± 4.3e-05 | –
293.15 K, m1 = 0.0005262 | – | 32.43 ± 0.46
293.15 K, m1 = 0.001053 | – | 31.43 ± 0.45
293.15 K, m1 = 0.001579 | – | 31.07 ± 0.45
298.15 K, m1 = 7.893e-06 | – | 56.32 ± 0.73
298.15 K, m1 = 1.052e-05 | – | 54.11 ± 0.71
298.15 K, m1 = 1.579e-05 | – | 50.72 ± 0.67
298.15 K, m1 = 2.631e-05 | – | 46.33 ± 0.62
298.15 K, m1 = 5.263e-05 | – | 40.82 ± 0.55
298.15 K, m1 = 9.47e-05 | 0.000409 ± 2.3e-05 | –
298.15 K, m1 = 0.0001016 | 0.000433 ± 2.4e-05 | –
298.15 K, m1 = 0.0001052 | – | 35.11 ± 0.49
298.15 K, m1 = 0.0001085 | 0.000458 ± 2.5e-05 | –
298.15 K, m1 = 0.0001154 | 0.000482 ± 2.7e-05 | –
298.15 K, m1 = 0.0001223 | 0.000507 ± 2.8e-05 | –
298.15 K, m1 = 0.0001293 | 0.000531 ± 2.9e-05 | –
298.15 K, m1 = 0.0001362 | 0.000556 ± 3.1e-05 | –
298.15 K, m1 = 0.0001431 | 0.000581 ± 3.2e-05 | –
298.15 K, m1 = 0.00015 | 0.000606 ± 3.3e-05 | 32.52 ± 0.46
298.15 K, m1 = 0.0001618 | 0.000621 ± 3.4e-05 | –
298.15 K, m1 = 0.0001737 | 0.000637 ± 3.5e-05 | –
298.15 K, m1 = 0.0001855 | 0.000653 ± 3.6e-05 | –
298.15 K, m1 = 0.0001973 | 0.000669 ± 3.7e-05 | –
298.15 K, m1 = 0.0002092 | 0.000684 ± 3.8e-05 | –
298.15 K, m1 = 0.0002105 | – | 31.91 ± 0.46
298.15 K, m1 = 0.000221 | 0.0007 ± 3.9e-05 | –
298.15 K, m1 = 0.0002329 | 0.000716 ± 3.9e-05 | –
298.15 K, m1 = 0.0002447 | 0.000732 ± 4e-05 | –
298.15 K, m1 = 0.0002565 | 0.000748 ± 4.1e-05 | –
298.15 K, m1 = 0.0002631 | – | 31.41 ± 0.45
298.15 K, m1 = 0.0002684 | 0.000764 ± 4.2e-05 | –
298.15 K, m1 = 0.0002802 | 0.00078 ± 4.3e-05 | –
298.15 K, m1 = 0.0002921 | 0.000796 ± 4.4e-05 | –
298.15 K, m1 = 0.0003039 | 0.000811 ± 4.5e-05 | –
298.15 K, m1 = 0.0003157 | 0.000829 ± 4.6e-05 | –
298.15 K, m1 = 0.0005262 | – | 30.8 ± 0.45
298.15 K, m1 = 0.001053 | – | 30.03 ± 0.44
298.15 K, m1 = 0.001579 | – | 29.71 ± 0.44
303.15 K, m1 = 6.578e-06 | – | 52.23 ± 0.69
303.15 K, m1 = 7.893e-06 | – | 50.81 ± 0.67
303.15 K, m1 = 1.052e-05 | – | 48.55 ± 0.64
303.15 K, m1 = 1.579e-05 | – | 45.89 ± 0.61
303.15 K, m1 = 2.631e-05 | – | 42.23 ± 0.57
303.15 K, m1 = 5.263e-05 | – | 37.06 ± 0.51
303.15 K, m1 = 9.47e-05 | 0.000467 ± 2.6e-05 | –
303.15 K, m1 = 9.9e-05 | 0.000486 ± 2.7e-05 | –
303.15 K, m1 = 0.0001033 | 0.000505 ± 2.8e-05 | –
303.15 K, m1 = 0.0001052 | – | 32.07 ± 0.46
303.15 K, m1 = 0.0001075 | 0.000524 ± 2.9e-05 | –
303.15 K, m1 = 0.0001118 | 0.000544 ± 3e-05 | –
303.15 K, m1 = 0.0001161 | 0.000563 ± 3.1e-05 | –
303.15 K, m1 = 0.0001204 | 0.000582 ± 3.2e-05 | –
303.15 K, m1 = 0.0001247 | 0.000601 ± 3.3e-05 | –
303.15 K, m1 = 0.0001289 | 0.000621 ± 3.4e-05 | –
303.15 K, m1 = 0.0001315 | – | 31.01 ± 0.45
303.15 K, m1 = 0.0001423 | 0.000643 ± 3.5e-05 | –
303.15 K, m1 = 0.0001556 | 0.000666 ± 3.7e-05 | –
303.15 K, m1 = 0.0001579 | – | 30.51 ± 0.44
303.15 K, m1 = 0.000169 | 0.000689 ± 3.8e-05 | –
303.15 K, m1 = 0.0001823 | 0.000712 ± 3.9e-05 | –
303.15 K, m1 = 0.0001956 | 0.000735 ± 4e-05 | –
303.15 K, m1 = 0.000209 | 0.000757 ± 4.2e-05 | –
303.15 K, m1 = 0.0002105 | – | 30.45 ± 0.44
303.15 K, m1 = 0.0002223 | 0.00078 ± 4.3e-05 | –
303.15 K, m1 = 0.0002357 | 0.000803 ± 4.4e-05 | –
303.15 K, m1 = 0.000249 | 0.000826 ± 4.5e-05 | –
303.15 K, m1 = 0.0002624 | 0.000849 ± 4.7e-05 | –
303.15 K, m1 = 0.0002631 | – | 30.43 ± 0.44
303.15 K, m1 = 0.0002757 | 0.000872 ± 4.8e-05 | –
303.15 K, m1 = 0.0002891 | 0.000895 ± 4.9e-05 | –
303.15 K, m1 = 0.0003024 | 0.000918 ± 5.1e-05 | –
303.15 K, m1 = 0.0003157 | 0.000944 ± 5.2e-05 | –
303.15 K, m1 = 0.0005262 | – | 29.89 ± 0.44
303.15 K, m1 = 0.001053 | – | 29.16 ± 0.43
303.15 K, m1 = 0.001579 | – | 28.81 ± 0.43
308.15 K, m1 = 4.604e-06 | – | 52.01 ± 0.68
308.15 K, m1 = 7.893e-06 | – | 48.13 ± 0.64
308.15 K, m1 = 1.052e-05 | – | 46 ± 0.61
308.15 K, m1 = 1.579e-05 | – | 43.23 ± 0.58
308.15 K, m1 = 2.631e-05 | – | 39.78 ± 0.54
308.15 K, m1 = 5.263e-05 | – | 35.06 ± 0.49
308.15 K, m1 = 7.37e-05 | 0.000445 ± 2.4e-05 | –
308.15 K, m1 = 8.04e-05 | 0.000472 ± 2.6e-05 | –
308.15 K, m1 = 8.72e-05 | 0.0005 ± 2.8e-05 | –
308.15 K, m1 = 9.4e-05 | 0.000528 ± 2.9e-05 | –
308.15 K, m1 = 0.0001007 | 0.000556 ± 3.1e-05 | –
308.15 K, m1 = 0.0001075 | 0.000583 ± 3.2e-05 | –
308.15 K, m1 = 0.0001143 | 0.000611 ± 3.4e-05 | –
308.15 K, m1 = 0.000121 | 0.00064 ± 3.6e-05 | 29.71 ± 0.44
308.15 K, m1 = 0.00013 | 0.000659 ± 3.7e-05 | –
308.15 K, m1 = 0.0001389 | 0.000679 ± 3.8e-05 | –
308.15 K, m1 = 0.0001479 | 0.000699 ± 4e-05 | –
308.15 K, m1 = 0.0001568 | 0.000719 ± 4.1e-05 | –
308.15 K, m1 = 0.0001579 | – | 29.44 ± 0.43
308.15 K, m1 = 0.0001658 | 0.000739 ± 4.2e-05 | –
308.15 K, m1 = 0.0001747 | 0.000759 ± 4.3e-05 | –
308.15 K, m1 = 0.0001837 | 0.000778 ± 4.5e-05 | –
308.15 K, m1 = 0.0001926 | 0.000798 ± 4.6e-05 | –
308.15 K, m1 = 0.0002015 | 0.000818 ± 4.7e-05 | –
308.15 K, m1 = 0.0002105 | 0.000839 ± 4.8e-05 | 29.16 ± 0.43
308.15 K, m1 = 0.0002194 | 0.000858 ± 5e-05 | –
308.15 K, m1 = 0.0002284 | 0.000878 ± 5.1e-05 | –
308.15 K, m1 = 0.0002373 | 0.000898 ± 5.2e-05 | –
308.15 K, m1 = 0.0002463 | 0.000917 ± 5.4e-05 | –
308.15 K, m1 = 0.0002552 | 0.000937 ± 5.5e-05 | –
308.15 K, m1 = 0.0002631 | – | 29.02 ± 0.43
308.15 K, m1 = 0.0002642 | 0.000957 ± 5.6e-05 | –
308.15 K, m1 = 0.0002731 | 0.000977 ± 5.7e-05 | –
308.15 K, m1 = 0.0002821 | 0.000997 ± 5.9e-05 | –
308.15 K, m1 = 0.000291 | 0.00102 ± 6e-05 | –
308.15 K, m1 = 0.0005262 | – | 28.71 ± 0.43
308.15 K, m1 = 0.001053 | – | 28.26 ± 0.42
308.15 K, m1 = 0.001579 | – | 28.07 ± 0.42
